We go through 9 compounds from ChEMBL document CHEMBL1201862, “PubChem BioAssay data set” (2004).

Among the test systems are A498; ACHN; CCRF-CEM; HCT-116; HL-60; IGROV-1; K562; KM12; LOX IMVI; NCI-H226; NCI-H460; OVCAR-8; SK-MEL-2; SK-MEL-5; SR; SW-620; U-251; SF-539.
Holding throughout (test): growth of human tumour cells (NCI), 48 h

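Compound exposure: 48 hours, 5 concentrations, 96-well plates. GI50 = concentration required for 50% inhibition of growth.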 Active and inactive are the calls of the source. Cut-off read from the data, not from the text of the source: active = GI50 up to about 1.1 µM and inactive = higher.

Turning to `O=C1[C@H](Cl)[C@H]2c3cc4ccccc4nc3Oc3ccccc3N12`, the GI50 in the test with A498 is 42.9 µM (inactive); in the test on ACHN, 28.4 µM (inactive); with CCRF-CEM, 61 µM (inactive); in the test with HCT-116, 17.2 µM (inactive); in the test with HL-60 it was 25.5 µM (inactive); in the test on IGROV-1, 32.7 µM (inactive). Further, the GI50 in the test on K562 was > 10 µM (inactive); in the test with KM12, 33.3 µM (inactive); in the test with LOX IMVI, 36.7 µM (inactive); in the test on NCI-H226 it was 75.9 µM (inactive); in the test on NCI-H460, 53.7 µM (inactive); in the test with OVCAR-8, 51.3 µM (inactive). For the same compound, the GI50 in the test with SK-MEL-2 is 36.5 µM (inactive); in the test on SK-MEL-5 it was 30.9 µM (inactive); in the test on SR, 20.9 µM (inactive); in the test with SW-620, > 100 µM (inactive); with U-251, 30.9 µM (inactive).

Regarding `COc1nc(NC2OCC(OC(C)=O)C(OC(C)=O)C2OC(C)=O)c(-c2csc(N)n2)c(=O)n1C` (stereo unspecified), the GI50 in the test on A498, with ACHN, in the test with CCRF-CEM, in the test with HCT-116, in the test with HL-60 and in the test on IGROV-1 was > 100 µM (inactive) in each case. For the same compound, the GI50 in the test on K562, with KM12, in the test on LOX IMVI, in the test on NCI-H226, in the test with NCI-H460 and in the test with OVCAR-8 was > 100 µM (inactive) in each case. For the same compound, the GI50 with SF-539, in the test on SK-MEL-2, with SK-MEL-5, in the test on SR, in the test on SW-620 and in the test with U-251 was > 100 µM (inactive) each time.

`Cc1cccc(C)c1NC(=O)CCCC(=O)C(C#N)c1ccccc1` (stereo unspecified): the GI50 in the test with A498 is > 10 µM (inactive); with ACHN, > 100 µM (inactive); with CCRF-CEM it was > 100 µM (inactive); with HCT-116, > 100 µM (inactive); with HL-60, > 100 µM (inactive); in the test with IGROV-1, > 100 µM (inactive). For the same compound, the GI50 was > 100 µM (inactive) in the test with K562; > 10 µM (inactive) with KM12; > 100 µM (inactive) in the test with NCI-H226; > 10 µM (inactive) with NCI-H460; > 10 µM (inactive) with OVCAR-8; > 10 µM (inactive) in the test on SF-539. The GI50 with SK-MEL-2 is > 100 µM (inactive); in the test on SK-MEL-5, > 100 µM (inactive); in the test with SR it was > 100 µM (inactive); in the test on SW-620, > 100 µM (inactive); in the test on U-251, > 10 µM (inactive).

For `O=C(O)c1c2c(c(C(=O)O)c3ccccc13)-c1ccccc1-2`, the GI50 with A498 was 44.1 µM (inactive); in the test on ACHN it was 30.8 µM (inactive); in the test on CCRF-CEM, 32.5 µM (inactive); in the test with HCT-116, 78.9 µM (inactive); in the test on HL-60 it was 36.4 µM (inactive); with IGROV-1, > 10 µM (inactive). The GI50 in the test on K562 was 33.6 µM (inactive); with KM12 it was 38.4 µM (inactive); in the test on LOX IMVI, 38.4 µM (inactive); with NCI-H226, 34 µM (inactive); with OVCAR-8, 39.9 µM (inactive); in the test with SF-539, 28.7 µM (inactive). Also, the GI50 was 33.3 µM (inactive) in the test on SK-MEL-2, 55.6 µM (inactive) with SR, 36.8 µM (inactive) in the test with SW-620 and 35.6 µM (inactive) with U-251.

As to `COc1cc2c(c(OC)c1OC)-c1ccc(SC)c(=O)cc1C(CC(=O)Oc1ccc(F)cc1)C2` (stereo unspecified), the GI50 is 0.0374 µM (active) with A498; 0.18 µM (active) with ACHN; 0.238 µM (active) in the test on CCRF-CEM; 0.0891 µM (active) in the test on HCT-116; 0.043 µM (active) with HL-60; 0.605 µM (active) with IGROV-1. The GI50 with K562 is 0.15 µM (active); in the test on KM12, 0.158 µM (active); with LOX IMVI, 0.236 µM (active); with NCI-H226, 0.231 µM (active); in the test on NCI-H460, 0.253 µM (active); with OVCAR-8 it was 0.333 µM (active). Further, the GI50 in the test on SF-539 was 0.117 µM (active); in the test on SK-MEL-2, 0.23 µM (active); in the test on SK-MEL-5 it was 0.193 µM (active); in the test with SR it was 0.0466 µM (active); in the test with SW-620, 0.0918 µM (active); in the test on U-251 it was 0.159 µM (active).

As for `O=[N+]([O-])[C@@H]1C2C=CC(C2)[C@H]1Cl` (stereo partly specified), the GI50 with A498, in the test with ACHN, with CCRF-CEM, in the test on HCT-116, in the test on HL-60 and in the test on IGROV-1 was > 100 µM (inactive) in each case. The GI50 in the test on K562, with KM12, with LOX IMVI, with NCI-H460, with OVCAR-8 and in the test on SF-539 was > 100 µM (inactive) in each case. Further, the GI50 with SK-MEL-2, in the test on SK-MEL-5, with SR, in the test with SW-620 and in the test on U-251 was > 100 µM (inactive) in each case.

For the compound `CCc1cc(CCC(=O)Nc2c(C)cccc2C)n[nH]1`, the GI50 in the test on A498, in the test with ACHN, with CCRF-CEM, with HCT-116, in the test on HL-60 and in the test on IGROV-1 was > 100 µM (inactive) throughout. The GI50 with K562, in the test with KM12, in the test with NCI-H226, with NCI-H460, in the test with OVCAR-8 and in the test on SF-539 was > 100 µM (inactive) in each case. Also, the GI50 in the test on SK-MEL-2, in the test on SK-MEL-5, in the test on SR, with SW-620 and in the test with U-251 was > 100 µM (inactive) each time.

Consider `CC1=CC(=O)c2c(C=O)c(O)c(O)c(C(C)C)c2C1=O`, for which the GI50 was 24.4 µM (inactive) with A498; 16.8 µM (inactive) in the test with ACHN; 14.7 µM (inactive) with CCRF-CEM; 18.3 µM (inactive) in the test on HCT-116; 25.6 µM (inactive) in the test on HL-60; 22.5 µM (inactive) in the test on IGROV-1. Besides, the GI50 was 26.1 µM (inactive) in the test on K562; 14.9 µM (inactive) in the test on LOX IMVI; 10.6 µM (inactive) in the test with NCI-H226; 28.8 µM (inactive) in the test with NCI-H460; 25.6 µM (inactive) with SF-539; 23.3 µM (inactive) in the test on SK-MEL-2. Also, the GI50 is 0.494 µM (active) with SK-MEL-5, 22.8 µM (inactive) in the test with SR and 19.8 µM (inactive) in the test on U-251.

`CC1=C(O)C(=O)C2C(=O)C1C1Cc3ccccc3C21` (stereo unspecified): the GI50 with A498, with ACHN, with CCRF-CEM, in the test on HL-60, with IGROV-1 and with K562 was > 100 µM (inactive) each time. The GI50 with KM12, in the test on LOX IMVI, with NCI-H226, in the test with OVCAR-8, in the test on SF-539 and in the test on SK-MEL-2 was > 100 µM (inactive) each time. The GI50 in the test with SK-MEL-5, in the test with SR, in the test on SW-620 and in the test on U-251 was > 100 µM (inactive) each time.
